Measurements taken from patent US20120245137A1 (Zalicus Pharmaceuticals Ltd., priority 2009, published 2012).

Columns and labels:
Format in all cases: cell-based
[1] = target: human α1H T-type channels (Homo sapiens, UniProt O95180); assay: T-type calcium channel block, whole cell patch clamp, α1H; settings: HEK cells stably expressing human α1H; mainly non-inactivated protocol; values above 10,000 nM represented as 10000
Outline: (§1)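 Blockade of T-type current was measured in human α1G- or α1H-expressing HEK 293 cells using whole-cell recording with ~5 MΩ pipettes. Test compounds, dissolved in external solution containing 0.1-0.01% DMSO, were applied close to the cell, and block was examined under both non-inactivating and inactivating voltage protocols.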

[2] = target: N-type calcium channel subunits (α1B, α2δ, and β3a) (Homo sapiens, UniProt Q00975); assay: Block of Cav2.2 channel, whole cell voltage clamp, manual and PatchXpress; settings: Table 5; table follows Assay Example 3 (whole cell voltage clamp / PatchXpress); assay not given
Outline: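 Percent block taken as current amplitude ratio with versus without compound, applied in rising doses; IC50 fitted where one cell received multiple doses. Protocol: 50 ms pulses to +20 mV at 0.067 Hz from […] or −90 mV holding; P/n leak subtraction, no junction-potential correction; manual and PatchXpress recordings.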

[3] = target: human α1G T-type channels (Homo sapiens, UniProt O43497); assay: T-type calcium channel block, whole cell patch clamp, α1G; settings: HEK cells stably expressing human α1G; mainly non-inactivated protocol; values above 10,000 nM represented as 10000
human α1G T-type channels, sequence (O43497 whole entry): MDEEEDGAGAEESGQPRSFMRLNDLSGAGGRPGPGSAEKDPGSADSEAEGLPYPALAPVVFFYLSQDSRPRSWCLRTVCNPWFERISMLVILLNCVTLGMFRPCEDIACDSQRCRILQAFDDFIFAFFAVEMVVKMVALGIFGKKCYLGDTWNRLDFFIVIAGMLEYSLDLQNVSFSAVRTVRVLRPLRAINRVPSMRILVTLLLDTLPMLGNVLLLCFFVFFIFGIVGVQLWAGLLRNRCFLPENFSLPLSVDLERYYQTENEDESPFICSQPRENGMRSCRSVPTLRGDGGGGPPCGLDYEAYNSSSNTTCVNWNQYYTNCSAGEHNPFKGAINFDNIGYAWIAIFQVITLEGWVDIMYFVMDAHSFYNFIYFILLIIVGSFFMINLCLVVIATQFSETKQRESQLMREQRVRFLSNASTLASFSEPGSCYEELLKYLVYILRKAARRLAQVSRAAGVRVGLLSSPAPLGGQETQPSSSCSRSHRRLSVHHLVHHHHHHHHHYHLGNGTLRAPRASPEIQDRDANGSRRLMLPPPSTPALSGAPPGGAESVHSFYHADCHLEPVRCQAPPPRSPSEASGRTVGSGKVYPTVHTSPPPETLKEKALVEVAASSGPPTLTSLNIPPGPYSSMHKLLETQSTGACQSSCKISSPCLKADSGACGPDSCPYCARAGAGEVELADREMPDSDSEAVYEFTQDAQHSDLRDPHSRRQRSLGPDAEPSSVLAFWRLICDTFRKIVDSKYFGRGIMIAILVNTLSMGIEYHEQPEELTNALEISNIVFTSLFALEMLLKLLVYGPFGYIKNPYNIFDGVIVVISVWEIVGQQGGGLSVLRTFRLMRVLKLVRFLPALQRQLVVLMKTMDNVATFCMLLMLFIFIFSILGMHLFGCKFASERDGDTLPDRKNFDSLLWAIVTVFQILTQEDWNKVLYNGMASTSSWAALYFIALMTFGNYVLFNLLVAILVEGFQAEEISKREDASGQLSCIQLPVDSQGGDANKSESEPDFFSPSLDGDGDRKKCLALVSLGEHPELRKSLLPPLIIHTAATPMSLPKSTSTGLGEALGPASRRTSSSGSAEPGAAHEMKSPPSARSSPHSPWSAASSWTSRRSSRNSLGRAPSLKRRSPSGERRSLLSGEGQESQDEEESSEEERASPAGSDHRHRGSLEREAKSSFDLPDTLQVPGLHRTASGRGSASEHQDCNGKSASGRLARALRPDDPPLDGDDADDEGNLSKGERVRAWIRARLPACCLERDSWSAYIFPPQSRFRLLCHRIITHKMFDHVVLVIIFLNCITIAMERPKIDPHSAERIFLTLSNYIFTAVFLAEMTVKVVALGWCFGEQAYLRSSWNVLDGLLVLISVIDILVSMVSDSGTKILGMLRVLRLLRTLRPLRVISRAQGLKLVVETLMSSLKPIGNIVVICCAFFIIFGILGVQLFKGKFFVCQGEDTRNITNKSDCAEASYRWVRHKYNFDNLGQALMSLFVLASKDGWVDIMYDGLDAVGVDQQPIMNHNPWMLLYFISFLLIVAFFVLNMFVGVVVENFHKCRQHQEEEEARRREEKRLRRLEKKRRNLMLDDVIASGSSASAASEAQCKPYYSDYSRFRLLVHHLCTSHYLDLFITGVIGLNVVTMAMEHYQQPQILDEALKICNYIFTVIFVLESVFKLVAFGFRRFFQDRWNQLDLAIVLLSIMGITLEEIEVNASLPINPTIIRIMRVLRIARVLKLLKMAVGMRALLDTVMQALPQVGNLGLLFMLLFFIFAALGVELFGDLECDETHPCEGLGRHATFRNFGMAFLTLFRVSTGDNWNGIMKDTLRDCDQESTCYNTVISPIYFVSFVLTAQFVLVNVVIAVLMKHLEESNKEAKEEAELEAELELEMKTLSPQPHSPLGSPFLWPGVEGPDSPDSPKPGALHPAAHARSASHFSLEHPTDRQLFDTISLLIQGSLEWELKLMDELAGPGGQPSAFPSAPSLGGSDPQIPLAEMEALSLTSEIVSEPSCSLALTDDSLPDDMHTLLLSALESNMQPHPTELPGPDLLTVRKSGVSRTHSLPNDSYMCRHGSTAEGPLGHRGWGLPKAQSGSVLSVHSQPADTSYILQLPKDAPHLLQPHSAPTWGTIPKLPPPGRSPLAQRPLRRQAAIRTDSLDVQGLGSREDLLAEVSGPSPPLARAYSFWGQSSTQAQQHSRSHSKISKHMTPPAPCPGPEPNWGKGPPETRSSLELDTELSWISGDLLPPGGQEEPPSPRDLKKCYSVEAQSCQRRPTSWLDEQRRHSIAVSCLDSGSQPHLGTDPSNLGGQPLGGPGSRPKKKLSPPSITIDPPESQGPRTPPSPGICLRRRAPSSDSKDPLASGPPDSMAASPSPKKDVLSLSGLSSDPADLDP
Outline: as §1

human α1H T-type channels, sequence (O95180 whole entry): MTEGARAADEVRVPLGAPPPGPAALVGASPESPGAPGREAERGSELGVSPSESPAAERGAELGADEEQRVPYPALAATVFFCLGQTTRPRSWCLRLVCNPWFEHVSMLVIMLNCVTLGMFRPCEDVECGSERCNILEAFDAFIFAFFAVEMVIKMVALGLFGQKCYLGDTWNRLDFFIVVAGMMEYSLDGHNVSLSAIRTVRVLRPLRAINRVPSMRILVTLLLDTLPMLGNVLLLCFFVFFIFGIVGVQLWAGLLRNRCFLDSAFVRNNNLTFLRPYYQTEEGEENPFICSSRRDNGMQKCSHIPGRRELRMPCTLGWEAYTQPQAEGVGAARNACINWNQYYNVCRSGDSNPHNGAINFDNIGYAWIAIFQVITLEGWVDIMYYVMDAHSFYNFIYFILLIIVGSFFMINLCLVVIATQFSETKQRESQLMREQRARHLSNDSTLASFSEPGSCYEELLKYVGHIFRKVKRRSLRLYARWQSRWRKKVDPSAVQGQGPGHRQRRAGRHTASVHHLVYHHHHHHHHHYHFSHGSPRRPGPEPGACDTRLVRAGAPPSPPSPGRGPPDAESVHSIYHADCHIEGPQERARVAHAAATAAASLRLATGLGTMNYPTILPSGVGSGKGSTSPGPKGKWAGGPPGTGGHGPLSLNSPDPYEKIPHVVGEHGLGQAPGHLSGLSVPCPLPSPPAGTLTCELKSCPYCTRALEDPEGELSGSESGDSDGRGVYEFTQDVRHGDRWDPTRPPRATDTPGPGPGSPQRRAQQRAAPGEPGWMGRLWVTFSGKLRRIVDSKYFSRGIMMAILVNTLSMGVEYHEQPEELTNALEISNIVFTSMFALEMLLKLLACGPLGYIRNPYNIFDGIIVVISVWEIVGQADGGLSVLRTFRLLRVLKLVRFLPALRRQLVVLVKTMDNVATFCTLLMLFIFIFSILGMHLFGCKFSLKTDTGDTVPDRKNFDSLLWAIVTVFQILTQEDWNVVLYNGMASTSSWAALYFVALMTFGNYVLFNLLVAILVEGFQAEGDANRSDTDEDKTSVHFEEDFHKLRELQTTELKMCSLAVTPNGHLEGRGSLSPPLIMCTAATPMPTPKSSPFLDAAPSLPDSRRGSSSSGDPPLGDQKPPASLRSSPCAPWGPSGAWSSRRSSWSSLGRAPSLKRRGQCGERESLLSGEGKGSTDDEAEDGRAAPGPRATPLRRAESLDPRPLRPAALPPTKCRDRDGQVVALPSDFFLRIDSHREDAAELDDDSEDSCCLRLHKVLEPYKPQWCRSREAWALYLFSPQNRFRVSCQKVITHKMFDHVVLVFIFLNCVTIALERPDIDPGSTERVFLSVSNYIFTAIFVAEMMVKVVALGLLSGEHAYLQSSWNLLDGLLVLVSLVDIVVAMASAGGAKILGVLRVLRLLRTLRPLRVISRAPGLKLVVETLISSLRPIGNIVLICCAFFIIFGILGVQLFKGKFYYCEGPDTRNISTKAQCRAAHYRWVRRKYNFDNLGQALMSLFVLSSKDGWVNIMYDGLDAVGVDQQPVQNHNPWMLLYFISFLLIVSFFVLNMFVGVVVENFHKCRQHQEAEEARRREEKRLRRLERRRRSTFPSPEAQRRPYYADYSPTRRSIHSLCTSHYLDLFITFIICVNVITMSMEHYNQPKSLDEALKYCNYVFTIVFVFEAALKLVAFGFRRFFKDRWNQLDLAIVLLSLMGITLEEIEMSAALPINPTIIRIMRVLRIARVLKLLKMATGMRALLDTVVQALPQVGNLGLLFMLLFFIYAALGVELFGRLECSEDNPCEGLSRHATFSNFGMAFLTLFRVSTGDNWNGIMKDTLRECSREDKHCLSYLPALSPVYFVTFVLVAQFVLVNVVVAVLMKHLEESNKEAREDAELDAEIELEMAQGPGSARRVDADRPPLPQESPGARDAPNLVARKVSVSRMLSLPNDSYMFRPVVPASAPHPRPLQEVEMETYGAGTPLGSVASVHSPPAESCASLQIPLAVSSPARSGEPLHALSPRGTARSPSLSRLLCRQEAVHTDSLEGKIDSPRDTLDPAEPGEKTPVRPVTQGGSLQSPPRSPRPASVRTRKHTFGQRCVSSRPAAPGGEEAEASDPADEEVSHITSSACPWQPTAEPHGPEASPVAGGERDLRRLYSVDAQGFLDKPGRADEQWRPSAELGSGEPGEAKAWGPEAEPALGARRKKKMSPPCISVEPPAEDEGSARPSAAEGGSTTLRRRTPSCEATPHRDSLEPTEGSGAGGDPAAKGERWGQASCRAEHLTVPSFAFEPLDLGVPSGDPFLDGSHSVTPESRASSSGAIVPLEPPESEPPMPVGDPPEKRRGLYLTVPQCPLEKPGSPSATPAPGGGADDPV

Compound | IC50 [1] [µM] | IC50 [2] [nM] | IC50 [3] [µM]
O=C(NC[C@H]1C[C@@H](S(=O)(=O)c2cccc(C(F)(F)F)c2)C1)c1cn2cc(C(F)(F)F)ccc2n1 [Compound 384, 6-(trifluoromethyl)-N-(((1S,3S)-3-(3-(trifluoromethyl)phenylsulfonyl)cyclobutyl)methyl)imidazo[l,2-a]pyridine-2-carboxamide] | 4.74 | 960 | > 10
O=C(NC[C@H]1C[C@@H](S(=O)(=O)c2cccc(C(F)(F)F)c2)C1)c1ccc(C(F)(F)F)cn1 [Compound 385, 5-(trifluoromethyl)-N-(((1S,3S)-3-(3-(trifluoromethyl)phenylsulfonyl)cyclobutyl)methyl)picolinamide] | > 10 | 710 | > 10
O=C(NC[C@H]1C[C@@H](S(=O)(=O)c2cccc(C(F)(F)F)c2)C1)c1ccnc(C(F)(F)F)c1 [Compound 386, 2-(trifluoromethyl)-N-(((1S,3S)-3-(3-(trifluoromethyl)phenylsulfonyl)cyclobutyl)methyl)isonicotinamide] | 0.27 | 2370 | 0.49
O=C(NC[C@H]1C[C@@H](S(=O)(=O)c2cccc(C(F)(F)F)c2)C1)c1ccnn1CC(F)(F)F [Compound 387, 1-(2,2,2-trifluoroethyl)-N-(((1S,3S)-3-(3-(trifluoromethyl)phenylsulfonyl)cyclobutyl)methyl)-1H-pyrazole-5-carboxamide] | 0.71 | 4220 | 0.72
O=C(NC[C@H]1C[C@H](S(=O)(=O)c2cc(F)cc(C(F)(F)F)c2)C1)c1ccc(F)c(C(F)(F)F)c1 [Compound 389, 4-fluoro-N-(((1R,3R)-3-(3-fluoro-5-(trifluoromethyl)phenylsulfonyl)cyclobutyl)methyl)-3-(trifluoromethyl) benzamide] | 8.98 | 270 | 6.08
O=C(Nc1ccc(Oc2ccc(F)c(Cl)c2)nc1)[C@H]1C[C@H](S(=O)(=O)c2cccc(C(F)(F)F)c2)C1 [Compound 399, (1R,3R)-N-(6-(3-chloro-4-fluorophenoxy)pyridin-3-yl)-3-(3-(trifluoromethyl)phenylsulfonyl)cyclobutane carboxamide] | 1.06 | 1140 | 1.25
O=C(Nc1ccc(Oc2ccc(C(F)(F)F)cn2)nc1)[C@H]1C[C@H](S(=O)(=O)c2cccc(C(F)(F)F)c2)C1 [Compound 400, (1R,3R)-3-(3-(trifluoromethyl)phenylsulfonyl)-N-(6-(5-(trifluoromethyl)pyridin-2-yloxy)pyridin-3-yl) cyclobutanecarboxamide] | 5.92 | 3830 | > 10
O=C(Nc1ccc(Oc2ccc(C(F)(F)F)nc2)nc1)[C@H]1C[C@H](S(=O)(=O)c2cccc(C(F)(F)F)c2)C1 [Compound 401, (1R,3R)-3-(3-(trifluoromethyl)phenylsulfonyl)-N-(6-(6-(trifluoromethyl)pyridin-3-yloxy)pyridin-3-yl) cyclobutanecarboxamide] | 9.26 | 1430 | > 10
CC(C)(NC(=O)[C@H]1C[C@H](S(=O)(=O)c2cccc(C(F)(F)F)c2)C1)c1ccc(F)cc1 [Compound 402, (1R,3R)-N-(2-(4-fluorophenyl)propan-2-yl)-3-(3-(trifluoromethyl)phenylsulfonyl)cyclobutane carboxamide] | 0.57 | 1700 | 0.64
COc1ccc(C(C)(C)NC(=O)[C@H]2C[C@H](S(=O)(=O)c3cccc(C(F)(F)F)c3)C2)cc1 [Compound 403, (1R,3R)-N-(2-(4-methoxyphenyl)propan-2-yl)-3-(3-(trifluoromethyl)phenylsulfonyl)cyclobutane carboxamide] | 1.04 | 1460 | 1.19
Cn1nc(C(F)(F)F)cc1NC(=O)[C@H]1C[C@H](S(=O)(=O)c2cccc(C(F)(F)F)c2)C1 [Compound 407, (1R,3R)-N-(1-methyl-3-(trifluoromethyl)-1H-pyrazol-5-yl)-3-(3-(trifluoromethyl)phenylsulfonyl) cyclobutanecarboxamide] | 1.66 | 5630 | > 10
Cn1nc(C(F)(F)F)cc1NC(=O)[C@H]1C[C@@H](S(=O)(=O)c2cccc(C(F)(F)F)c2)C1 [Compound 408, (1S,3S)-N-(1-methyl-3-(trifluoromethyl)-1H-pyrazol-5-yl)-3-(3-(trifluoromethyl)phenylsulfonyl)cyclobutane carboxamide] | 0.42 | 2490 | 8
O=C(Nc1cc(C(F)(F)F)ccn1)[C@H]1C[C@H](S(=O)(=O)c2cccc(C(F)(F)F)c2)C1 [Compound 409, (1R,3R)-3-(3-(trifluoromethyl)phenylsulfonyl)-N-(4-(trifluoromethyl)pyridin-2-yl)cyclobutanecarboxamide] | 3.62 | 1690 | 2.65
O=C(Nc1cc(C(F)(F)F)ccn1)[C@H]1C[C@@H](S(=O)(=O)c2cccc(C(F)(F)F)c2)C1 [Compound 410, (1S,3S)-3-(3-(trifluoromethyl)phenylsulfonyl)-N-(4-(trifluoromethyl)pyridin-2-yl)cyclobutanecarboxamide] | 1.79 | 1240 | 3.49
O=C(Nc1cccc(C(F)(F)F)n1)[C@H]1C[C@H](S(=O)(=O)c2cccc(C(F)(F)F)c2)C1 [Compound 411, (1R,3R)-3-(3-(trifluoromethyl)phenylsulfonyl)-N-(6-(trifluoromethyl)pyridin-2-yl)cyclobutanecarboxamide] | 2.43 | 1020 | > 10
O=C(Nc1cccc(C(F)(F)F)n1)[C@H]1C[C@@H](S(=O)(=O)c2cccc(C(F)(F)F)c2)C1 [Compound 412, (1S,3S)-3-(3-(trifluoromethyl)phenylsulfonyl)-N-(6-(trifluoromethyl)pyridin-2-yl)cyclobutanecarboxamide] | 1.55 | 590 | 6.81
O=C(Nc1ccc(C(F)(F)F)cn1)[C@H]1C[C@H](S(=O)(=O)c2cccc(C(F)(F)F)c2)C1 [Compound 415, (1R,3R)-3-(3-(trifluoromethyl)phenylsulfonyl)-N-(5-(trifluoromethyl)pyridin-2-yl)cyclobutanecarboxamide] | > 10 | 1760 | > 10
O=C(Nc1ccc(C(F)(F)F)cn1)[C@H]1C[C@@H](S(=O)(=O)c2cccc(C(F)(F)F)c2)C1 [Compound 416, (1S,3S)-3-(3-(trifluoromethyl)phenylsulfonyl)-N-(5-(trifluoromethyl)pyridin-2-yl)cyclobutanecarboxamide] | 8.18 | 1650 | > 10
Cc1nc(C(F)(F)F)ccc1NC(=O)[C@H]1C[C@H](S(=O)(=O)c2cccc(C(F)(F)F)c2)C1 [Compound 417, (1R,3R)-N-(2-methyl-6-(trifluoromethyl)pyridin-3-yl)-3-(3-(trifluoromethyl)phenylsulfonyl)cyclobutane carboxamide] | 4.69 | 5440 | > 10
Cc1nc(C(F)(F)F)ccc1NC(=O)[C@H]1C[C@@H](S(=O)(=O)c2cccc(C(F)(F)F)c2)C1 [Compound 418, (1S,3S)-N-(2-methyl-6-(trifluoromethyl)pyridin-3-yl)-3-(3-(trifluoromethyl)phenylsulfonyl)cyclobutane carboxamide] | 2.87 | 3500 | > 10
O=C(Nc1cncc(Cl)c1)[C@H]1C[C@H](S(=O)(=O)c2cccc(C(F)(F)F)c2)C1 [Compound 419, (1R,3R)-N-(5-chloropyridin-3-yl)-3-(3-(trifluoromethyl)phenylsulfonyl)cyclobutane carboxamide] | > 10 | 3430 | > 10
O=C(Nc1cncc(Cl)c1)[C@H]1C[C@@H](S(=O)(=O)c2cccc(C(F)(F)F)c2)C1 [Compound 420, (1S,3S)-N-(5-chloropyridin-3-yl)-3-(3-(trifluoromethyl)phenylsuIfonyl)cyclobutane carboxamide] | 0.71 | 1250 | 2.02
Cc1noc(C)c1S(=O)(=O)NC[C@H]1C[C@H](S(=O)(=O)c2cccc(C(F)(F)F)c2)C1 [Compound 422, 3,5-dimethyl-N-(((1R,3R)-3-(3-(trifluoromethyl)phenylsulfonyl)cyclobutyl)methyl)isoxazole-4-sulfonamide] | 1.39 | 2670 | 2.25
O=S(=O)(NC[C@H]1C[C@H](S(=O)(=O)c2cccc(C(F)(F)F)c2)C1)c1ccc(C(F)(F)F)cc1Cl [Compound 423, 2-chloro-4-(trifluoromethyl)-N-(((1R,3R)-3-(3-(trifluoromethyl)phenylsulfonyl)cyclobutyl)methyl)benzenesulfonamide] | > 10 | 1280 | > 10
O=S(=O)(NC[C@H]1C[C@H](S(=O)(=O)c2cccc(C(F)(F)F)c2)C1)c1ccc(C(F)(F)F)cc1 [Compound 424, 4-(trifluoromethyl)-N-(((1R,3R)-3-(3-(trifluoromethyl)phenylsulfonyl)cyclobutyl)methyl)benzenesulfonamide] | 1.04 | 1460 | 2.29
